Columns and labels:
[1] = tested on: mouse tail tip fibroblasts (TTF); experiment: qRT-PCR of autophagy-related and lysosomal genes in mouse tail tip fibroblasts; format: cell-based
Protocol: (§1) The cells in the cell-culture dish were collected, extracted using AxyPrep Total RNA Mini Prep Kit or Qiagen AxyPrep Total RNA Mini Prep Kit, and the extracted RNA concentration is measured using Nanodrop; the extracted mRNA was reverse transcribed into cDNA by Transgen's EasyScript® One-Step gDNA Removal and cDNA Synthesis SuperMix and the primers used for reverse transcription were Oligo dT primers; the completion of reverse transcription followed by qRT-PCR reaction through PerfectStart™ Green qPCR SuperMix to detect the expression of the target gene; the qRT-PCR reaction was performed on the Bio-Rad CFX96 Real-Time PCR system; see Table 2 and Table 3 for the 20 μL qRT-PCR reaction system and reaction procedures; data analysis was performed in Prism 7 software using the 2^−ΔΔCt process with GAPDH as internal reference for relative quantification of the expression of the target gene.
Compound G was added to the mouse tail tip fibroblasts (TTF), after incubation for 6 hours, mRNA was extracted, and the transcription level of the autophagy-related genes and the lysosomal genes in the cells was detected.
First, lentivirus packaged with control shRNA or FXR shRNA-2 was used to infect the mouse TTF. After treatment with Compound G, mRNA was extracted for detection of gene transcription.

[2] = tested on: APP-gene mutant human neurons; experiment: Human neuron model of Alzheimer's dementia (Aβ immunofluorescence, Aβ42 ELISA); format: cell-based
From the text: FIG. 44: Compound G reduced Aβ protein storage and secretion levels of toxic Aβ42 in APP mutant neurons. (a) Immunofluorescence staining, for detecting Compound G-treated APP mutant neurons for abnormal accumulation of Aβ protein and (b) statistics of Aβ plaque area, and the scale bar was 50 μm. (c) ELISA tests, for measuring the effect of Compound G on the secretion level of toxic Aβ42 of APP mutant neurons.
The present disclosure detected the therapeutic effect of the treatment of Compound G on Alzheimer's dementia. We directed the differentiation of human embryonic stem cells with mutations in APP gene into human neurons in vitro and constructed an in vitro human neuron model of Alzheimer's dementia.

[3] = tested on: CLN3^Δex7/8 human neural stem cells; experiment: qRT-PCR of autophagy-related and lysosomal genes in human neural stem cells; format: cell-based; settings: 6 hours
Protocol: as §1
(§2) The effect of Compound G on the transcription level of the autophagy-related genes and the lysosomal genes was further detected in the induced CLN3^Δex7/8 human neural stem cells and neurons.

[4] = tested on: cathepsin D; experiment: Intracellular cathepsin D activity; format: cell-based, human; settings: CLN3^Δex7/8 neurons
Protocol: The activity of intracellular protease cathepsin D was measured using Abcam's Cathepsin D Activity Assay kit. Each sample was prepared in more than 3 replicates. […]

[5] = tested on: Cln3 KO mice; experiment: Body weight, brain tissue mass and toxicity in Cln3 KO mice
Protocol: The control group was Cln3 KO mice whose drinking water contained an equal amount of solvent. Body weight changes were recorded during administration.
Starting from day 21 on which the mice were weaned, Compound G or the solvent was added to the drinking water of Cln3 KO mice, and the weight changes of the mice were recorded. […] When the mice reached six months of age, they were euthanized and the brain tissues were taken out and weighed.

[6] = tested on: Cln3 KO mice; experiment: Immunohistochemical staining of SCMAS in Cln3 KO mouse brain; format: in vivo; settings: Cln3 KO mice treated from 21 days to 2 months of age
[7] = tested on: CLN3^Δex7/8 human neurons; experiment: qRT-PCR of autophagy-related and lysosomal genes in human neurons; format: cell-based; settings: 6 hours
Protocol: as §1, §2

[8] = tested on: CLN3^Δex7/8 neural stem cells; experiment: Immunofluorescence staining of neural stem cell lineage markers; format: cell-based, human; settings: 48 hours of treatment
Protocol: Fixation: the cell medium was aspirated and the cells were washed once with dPBS, then 4% paraformaldehyde solution was added to fix the cells, which were then incubated at room temperature for 20 min and washed 3 times with dPBS for 5 min each; blocking and permeabilization: blocking solution (5% BSA and 0.3% Trinton-X100 dissolved in dPBS) was added, incubation at room temperature for 1 hour followed by washing with dPBS 3 times for 5 minutes each; primary antibody incubation: the antibody was diluted with dPBS containing 5% BSA according to the specification, incubated overnight at 4° C. or 2 hours at room temperature, and washed 3 times with dPBS for 5 minutes each; secondary antibody incubation: the secondary antibody of the corresponding species was diluted with dPBS containing 5% BSA at a ratio of 1:1000, incubated at room temperature for 1 hour, and then washed with dPBS 3 times for 5 minutes each; nuclear staining: DAPI was diluted to 100 ng/ml with dPBS, incubated at room temperature for 5 minutes, and washed 3 times with dPBS for 5 minutes each; imaging: imaging was performed using Olympus IX83 Inverted Motorized Microscope or Opera Phenix™ High Content Screening System.
After 48 hours of treatment of CLN3^Δex7/8 neural stem cells with Compound G, immunofluorescence staining was performed for the neural stem cell lineage markers SOX1, PAX6 and NESTIN.

[9] = tested on: CLN3^Δex7/8 neural stem cells; experiment: Differentiation of CLN3^Δex7/8 neural stem cells into neurons; format: cell-based, human; settings: after 17 days of differentiation
Protocol: When the density of human induced neural stem cells reached 85-95%, passage was performed at 1:20-1:50 according to the above method. The medium on the day of passage (recorded as Day 1 of differentiation) was human neural stem cell maintenance medium with 10 μM Y27632, which was removed after 24 h, and culture continued in human neural stem cell maintenance medium for 48 hours. On Day 4 of differentiation, the medium was changed to human neuronal differentiation medium (human neuronal medium: DMEM/F12 medium+10 ng/ml hBDNF+10 ng/ml hGDNF+300 ng/mL cAMP+0.2 mM vitamin C+1×N2+1×B27+1% Penicillin/Streptomycin), with medium change halfly every other day. Human neurons highly expressing MAP2 and TUJ1 proteins were obtained on Day 17 of differentiation. Thereafter, the human neurons could be continuously cultured in the human neuron differentiation medium, with medium change halfly every other day.
Starting from the same number of human neural stem cells induced to differentiate into human neurons, CLN3^Δex7/8 neural stem cells eventually generated a lower number of neurons than wild-type cells. During the process of neurons differentiation, the seven small molecule compounds obtained above were each added to the culture medium and observed for their effects on the differentiation process of CLN3^Δex7/8 neural stem cells into neurons.

In the case of C/C=C1\C(=O)C[C@H]2[C@@H]3CCC4=CC(=O)CC[C@]4(C)[C@H]3CC[C@]12C [Compound G, (Z)-guggulsterone], the “expression of the autophagy-related genes” value ([1]; TTF infected with FXR shRNA-2) is reported as “failed to increase”, the “transcription level of the autophagy-related genes and the lysosomal genes” value ([1]; TTF, incubation for 6 hours) is reported as “significantly increase” and the “expression of the autophagy-related genes” value ([1]; control shRNA-infected TTF) is reported as “significantly increase”. The “deposition of Aβ plaques” value [2] was “significant reduction”, the “level of toxic Aβ42 secreted by the cells into the culture medium” value ([2]; ELISA) was “significant reduction” and the “transcription level of the autophagy-related genes or the lysosomal genes” value [3] was “did not significantly increase”. For the same molecule, the “activity of cathepsins D (fluorescence intensity)” value [4] was “significantly increased”, the “body weight of mice” value ([5]; 2 or 6 months old, drinking water from day 21) was “no significant effect” and the “mass of the mice brain tissue” value ([5]; 6 months of age) was “no significant effect”. For the same molecule, the “substances (SCMAS) abnormally stored in the brains” value [6] was “alleviate the amount of the substances abnormally stored in the brains of Cln3 KO mice to a certain extent”, the “expression of the autophagy-related genes or the lysosomal genes overall” value [7] was “did not significantly increase” and the “neural stem cell lineage markers SOX1, PAX6 and NESTIN (cell fate)” value [8] was “maintained the characteristics of SOX1, PAX6 and NESTIN positive”. The “MAP2 and TUJ1-positive neurons generated from the same number of cells” value [9] was “generate more MAP2 and TUJ1-positive neurons”.

Reference: patent US20250152605A1, “METHOD AND DRUG FOR TREATING NEURONAL CEROID LIPOFUSCINOSIS” (priority 2021, published 2025)
